Experimental data reported in article PMC10198977, “Computational design of dynamic receptor—peptide signaling complexes applied to chemotaxis” (Nature Communications, 2023).
One block for each molecule: values may come before it. Residues, ends and D or L forms follow the SMILES beside them. No end group written: not given here.

How the values were obtained:
[1] = target: T1, Csedy (Homo sapiens, UniProt P61073); assay: Calcium mobilization of peptides on Csedy; assay type: cell-based; details: Csedy receptor, Ca
T1 sequence (P61073 whole entry): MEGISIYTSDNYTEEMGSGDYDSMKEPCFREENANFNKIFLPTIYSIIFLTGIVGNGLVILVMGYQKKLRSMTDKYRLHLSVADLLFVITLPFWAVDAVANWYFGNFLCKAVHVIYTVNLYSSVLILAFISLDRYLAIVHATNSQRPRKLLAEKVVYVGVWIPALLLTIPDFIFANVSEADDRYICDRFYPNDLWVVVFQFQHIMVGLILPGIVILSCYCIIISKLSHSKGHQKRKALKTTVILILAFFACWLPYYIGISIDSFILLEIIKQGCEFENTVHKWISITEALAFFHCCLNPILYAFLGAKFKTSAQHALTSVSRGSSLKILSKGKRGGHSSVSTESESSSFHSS
Method: (§1) Lyophilized peptides were stored at −80 °C and resuspended in assay buffer on the day of the experiment.
(§2) Calcium mobilization assays
(§3) 40,000 HEK 293T cells (gift from Prof. Ted Wensel at Baylor College of Medicine) were transiently transfected with 50 ng WT or variant HA3-CXCR4, 10 ng GNA15 in pcDNA3.1(+). To equalize receptor surface expression, 75 ng of HA3-CXCR4 was used for the Csel2 variant. Cells were first seeded in 100 µL DMEM (Gibco, ref: 41965-039) 10 % FBS in a black-walled, clear-bottom 96-well plate coated with poly-lysine (Sigma, ref: P6407-5MG). Directly after cell loading, 50 µL of the mixture containing 0.5 µL Lipofectamine 2000 (Invitrogen, ref: 11668-019) and the DNA was added on top of the cells. The cells were incubated at 37 °C, 5% CO2, and 95% relative humidity for 20 h, after which, media was refreshed with 150 µL DMEM + 10% FBS. Cells were assayed 48 h post-transfection. Cells were washed with 200 µL FLIPR6 buffer (HBSS + 20 mM HEPES, pH 7.4), then incubated at 37 °C, 5% CO2, and 95% relative humidity for 2 h in 200 µL dye buffer according to the manufacturer’s protocol (Molecular Devices, ref: R8190). Just before the assay, 5× concentrated peptide solutions were prepared in FLIPR6 buffer in a V-bottom 96-well plate. After incubation, peptide solutions were added at a rate of 16 µL/s after 30 s and fluorescence changes were monitored for 90 s after addition using microplate reader FlexStation3 (Molecular Devices). The maximum response after correction by the mock-transfected condition was averaged from three replicates. Values were then plotted against selected concentrations and fitted to a sigmoidal curve using GraphPad Prism v9.

[2] = target: T1, Csedy; assay: Gαi BRET of peptides on Csedy; assay type: cell-based; details: Csedy receptor; for log(EC50): Gi
Method: as §1
(§4) 40,000 HEK 293T cells were transiently transfected with WT or variant HA3-CXCR4, Gαi1−91-Rluc8, Gβ3-WT, and Gγ9-GFP2 in pcDNA3.1(+) at a ratio of 10:1:10:5 respectively. Cells were first seeded in 100 µL DMEM 10% FBS in a poly-lysine coated, white-walled, white-bottom 96-well plate. Directly after cell loading, 50 µL of the mixture containing Lipofectamine 2000 and the DNA was added on top of the cells. The cells were then left to incubate at 37 °C, 5% CO2, and 95% relative humidity for 20 h, after which, 150 µL media was refreshed. Cells were assayed 48 h post-transfection. Cells were washed with 150 µL PBS, then 40 µL BRET buffer (HBSS, 0.2% Glucose) was added to each well. Coelenterazine 400a was first added at a final concentration of 2.5 µM and BRET ratios were measured once using Mithras[2] LB 943 plate reader. After the first measurement, 40 µL of a 3x concentrated agonist solution was added to each well, and BRET ratios were measured for another 30 min using a Mithras[2] LB 943 plate reader. Mock-transfected controls were subtracted from the data. Maximum values averaged from 3 replicates were then plotted against selected concentrations and fitted to a sigmoidal curve using GraphPad Prism v9.

[3] = target: T2, WT CXCR4 (Homo sapiens, UniProt P61073); assay: Calcium mobilization of peptides on WT CXCR4; assay type: cell-based; details: WT receptor, Ca
T2 sequence (P61073 whole entry): as above
Method: as §1, §2, §3

[4] = target: T2, WT CXCR4; assay: Gαi BRET of peptides on WT CXCR4; assay type: cell-based; details: WT receptor, Gi
Method: as §1, §4

[5] = target: Csel2 designed CXCR4 receptor (UniProt P61073)
[6] = target: Cdyn designed CXCR4 receptor (UniProt P61073)
[7] = target: Csedy designed CXCR4 receptor (UniProt P61073)
[8] = system: Gαi activation; assay: Gαi dissociation BRET of designed receptors with WT CXCL12(1-17) peptide; assay type: cell-based; details: WT CXCL12 peptide
Method: as §1, §4

[9] = system: CXCR4 variant ligand-binding cavity; assay: Receptor cavity cross-sectional area and structure-function map; details: receptor–peptide pair; Fig. 5c z-axis
From the text: Calculation of receptor cavity cross-sectional area
To quantify the conformational diversity of the ligand binding site between receptor variants, the ligand-binding pocket of the receptor models (from whose the ligand molecule was removed) was geometrically described using pyKVFinder[75]. Cavities were defined using a 1.2 Å probe over a cubic lattice (0.25 Å vertex). A 4.0 Å probe was used to define the entrance of the cavity.

[10] = target: Csedy designed CXCR4 receptor (UniProt P61073); remark: listed apart in the source
[11] = target: Csel2 designed CXCR4 receptor (UniProt P61073); remark: listed apart in the source
[12] = target: WT CXCR4 with an N-terminal 3xHA-tag (UniProt P61073)
[13] = target: Cdyn designed CXCR4 receptor (UniProt P61073); remark: listed apart in the source

Efficacy ([1]; average (n=3)): 102.027 % WT | log(EC50) ([1]; replicate 1): -5.519 | log(EC50) ([1]; replicate 2): -5.737 | log(EC50) ([1]; replicate 3): -5.907 | increase in efficacy ([2]; vs WT receptor–peptide pair): > 34% | log(EC50) ([2]; replicate 1): -6.83 | log(EC50) ([2]; replicate 2): -7.058 | log(EC50) ([2]; replicate 3): -7.474
Molecule: CC(C)C[C@H](NC(=O)[C@H](CO)NC(=O)[C@H](Cc1ccc(O)cc1)NC(=O)[C@@H]1CCCN1C(=O)[C@@H](N)CCCCN)C(=O)N[C@@H](CO)C(=O)N[C@@H](CC(C)C)C(=O)N[C@@H](CCCNC(=N)N)C(=O)N[C@@H](CS)C(=O)N1CCC[C@H]1C(=O)N[C@@H](CS)C(=O)N[C@@H](CCCNC(=N)N)C(=O)N[C@@H](Cc1ccccc1)C(=O)N[C@@H](Cc1ccccc1)C(=O)N[C@@H](CCC(=O)O)C(=O)N[C@@H](CO)C(=O)N[C@@H](Cc1c[nH]cn1)C(N)=O [V3Y-Y7L] (H-KPYSLSLRCPCRFFESH-NH2)

Molecule: CC(C)C[C@H](NC(=O)[C@H](CO)NC(=O)[C@@H](NC(=O)[C@@H]1CCCN1C(=O)[C@@H](N)CCCCN)C(C)C)C(=O)N[C@@H](CO)C(=O)N[C@@H](Cc1ccc(O)cc1)C(=O)N[C@@H](CCCNC(=N)N)C(=O)N[C@@H](CS)C(=O)N1CCC[C@H]1C(=O)N[C@@H](CS)C(=O)N[C@@H](CCCNC(=N)N)C(=O)N[C@@H](Cc1ccccc1)C(=O)N[C@@H](Cc1ccccc1)C(=O)N[C@@H](CCC(=O)O)C(=O)N[C@@H](CO)C(=O)N[C@@H](Cc1c[nH]cn1)C(N)=O [WT, reference compound] (H-KPVSLSYRCPCRFFESH-NH2)
Efficacy ([3]; average (n=3)): 100 % WT | EC50 ([3]; replicate 1): 12.9 µM | EC50 ([3]; replicate 2): 8.57 µM | EC50 ([3]; replicate 3): 15.3 µM | Efficacy ([4]; average (n=3)): 100 % WT | EC50 ([4]; replicate 1): 11.2 µM | EC50 ([4]; replicate 2): 9.75 µM | EC50 ([4]; replicate 3): 12 µM

potency in Gαi-coupling (BRET, HEK 293T cells, WT CXCL12 peptide), fold over WT CXCR4 [5]: 3.2 fold | potency in calcium mobilization (HEK 293T cells, WT CXCL12 peptide), fold over WT CXCR4 [5]: 3.1 fold | Gαi efficacy (BRET, WT CXCL12 peptide), increase over the CXCR4 WT scaffold [6]: 20% | Gαi potency (BRET, WT CXCL12 peptide), fold over the CXCR4 WT scaffold [6]: 11 fold | Gαi response (BRET) against WT CXCL12 peptide, fold increase over WT CXCR4 [7]: > 9 fold
Molecule: KPVSLSYRCPCRFFESH-NH2 (cysteine pairing not given here) [wild-type peptide of the 17 N-terminal residues of CXCL12]

enhanced potency from WT ([8]; up to): up to 11 -fold | enhanced potency in Gαi-coupling ([8]; over WT CXCR4): ~11 -fold | increase in efficacy (Gαi) ([8]; vs WT CXCR4): 20% | Potency (activity shift from WT) [9]: 1.794
B1: Cdyn: CXCR4 receptor design maintaining conformational dynamism; 3 mutations (protein, UniProt P61073 1-352, looked up, variant L41A S178A H113N)
C-X-C chemokine receptor type …: MEGISIYTSDNYTEEMGSGDYDSMKEPCFREENANFNKIFAPTIYSIIFLTGIVGNGLVILVMGYQKKLRSMTDKYRLHLSVADLLFVITLPFWAVDAVANWYFGNFLCKAVNVIYTVNLYSSVLILAFISLDRYLAIVHATNSQRPRKLLAEKVVYVGVWIPALLLTIPDFIFANVAEADDRYICDRFYPNDLWVVVFQFQHIMVGLILPGIVILSCYCIIISKLSHSKGHQKRKALKTTVILILAFFACWLPYYIGISIDSFILLEIIKQGCEFENTVHKWISITEALAFFHCCLNPILYAFLGAKFKTSAQHALTSVSRGSSLKILSKGKRGGHSSVSTESESSSFHSS

efficacy of signaling, increase [10]: 34% | potency of signaling, fold increase [10]: > 100 fold
Molecule: KPYSLSLRCPCRFFESH-NH2 (cysteine pairing not given here) [CXCL12 V3Y-Y7L variant peptide (17 N-terminal residues)]

Gαi efficacy (BRET) with the Y7L peptide, increase [11]: 30% | overall Gαi response (BRET) with the Y7L peptide, decrease [12]: 18%
Molecule: KPVSLSLRCPCRFFESH-NH2 (cysteine pairing not given here) [CXCL12 Y7L variant peptide (17 N-terminal residues)]

efficacy of signaling, increase over the WT receptor-peptide pair [13]: 25% | potency of signaling, fold over the WT receptor-peptide pair [13]: > 80 fold
Molecule: KPYSLSYRCPCRFFESH-NH2 (cysteine pairing not given here) [CXCL12 V3Y variant peptide (17 N-terminal residues)]
